Results: patent publication US20050004007A1, “Promotion of adoptosis in cancer cells by co-administration of cyclin dependent kinase inhibitiors and cellular differentiation agents” (priority 2000, published 2005)

Experiments:
p21WAF1/CIP1 = assay: Western analysis of p21WAF1/CIP1 expression in U937 cells; assay type: cell-based, human
Protocol: (§1) Western analysis. Equal quantities of protein (15 μg/condition for MAPK, 40 μg/condition for cytochrome c, or 25 μg/condition) were separated by SDS-PAGE [underphosporylated pRB (7.5%), poly(ADP-ribose)polymerase or PARP (8.0%), p44/p42 MAPK (10%), p21, p27, procaspase 3 (12%), and cytochrome c (15%)] and electroblotted onto nitrocellulose. Western analysis of p44/p42 MAPK protein was performed according to the manufacturer's instructions (New England Biolabs); otherwise, studies were performed as previously described [Wang et al, 1998]. Briefly, U937 cells (5×10^6) were pelleted by centrifugation, resuspended in 50 μl PBS, lysed by the addition of 2× Laemmli buffer and boiled for 5 min. Proteins were quantified with Coomassie protein assay reagent. Blots were blocked in PBS-T/5% milk, washed twice with PBS-T, and incubated overnight at 4° C. with the appropriate primary antibody. The blots were washed with PBS-T and incubated with a horseradish-peroxidase conjugated secondary antibody diluted appropriately in PBS-T/5% mill. Following incubation, blots were developed by enhanced chemiluminescence exposure to Kodak X-OMAT film (Eastman Kodak Co., Rochester, N.Y.) and reprobed with antibodies directed against actin to control for equal loading of protein.
(§2) Alternatively, whole cell-pellets were washed twice in PBS, resuspended in PBS, and lysed by the addition of I volume of loading buffer. Lysates were boiled for 10 min, centrifuged at 12,800 g for 5 min and quantified using Coomassie protein assay reagent (Pierce, Rockfold, Ill.). 25 μg of total proteins per point were separated by SDS-PAGE and electro-blotted to nitrocellulose. The blots were blocked in 5% non-fat milk in PBS-T and probed for 1 h with the appropriate dilution of primary antibody. Blots were washed 3×10 min in PBS-T and then incubated with a 1:2000 dilution of peroxidase-conjugated secondary antibody for 1 h at room temperature. Blots were again washed 3×10 min in PBS-T and then developed by enhanced chemiluminesence. Where indicated, blots were stripped and re-probed with antibodies directed against actin.
(§3) Primary antibodies for both p21^WAF1/CIP1 and p27^KIP1 (Transduction Laboratories, Lexington, Ky.) were used in a 1:1000 dilution; PARP (1:1000; Oncogene Research Products, Cambridge, Mass.); pro-caspase 3 (1:1000; Transduction Laboratories); cytochrome c (1:2000; Pharmingen); bcl-2 (1:2000; DAKO, Denmark); bax (1:1000; Santa Cruz Biotechnology, Inc., Santa Cruz, Calif.); bid (1:1000; Cell Signaling, Beverly, Mass.); XIAP (1:1000; Cell Signaling); Mcl-1 (1:1000; Pharmingen); bak (1:1000; Calbiochem); c-Myc (1:1000; Pharmingen, San Diego, Calif.); actin (1:2000; Sigma Chemicals, St. Louis, Mo.); cyclins-D1, -A and -E (1:1000; Pharmingen); pRb, underP-pRb, pRb-CDK2 and pRb-CDK4 (all 1:1000; Pharmingen); Ac-H3 and Ac-H4 (both 1:1000; Upstate Biotechnology, Lake Placid, N.Y.); E2F-1 (Upstate Biotechnology). Secondary antibodies conjugated to horseradish peroxidase were obtained from Kirkegaard and Perry Laboratories, Inc. (Gaithersburg, Md.). Coomassie protein assay reagent was purchased from Pierce (Rockford, Ill.), and an enhanced chemiluminescence kit was obtained from New England Nuclear (Boston, Mass.). The pan-caspase inhibitor BOC-D-fmk and the caspase 8 inhibitor Z-IETD-fmk were purchased from Enzyme System Products (Livermore, Calif.) All other chemicals or reagents were purchased from Sigma.

U937 cells [1] = assay: CD11b surface differentiation marker expression (flow cytometry); assay type: cell-based, human; conditions: 24 h; 10 nM PMA alone or with 50 nM FP
Protocol: (§4) Differentiation studies. Expression of the monocytic differentiation marker, CD11b, was monitored by direct immunofluorescence staining and flow cytometric analysis as previously described [Freemerman et al. 1997]. Following drug treatment, suspension and adherent cells were enumerated by a Coulter Counter and 2×10^6 cells were pelleted by centrifugation. The supernatant was aspirated and the cells were resuspended in 300 μl of ice-cold PBS. Two 100 μl aliquots from each sample were then combined with either phycoerythrin-1 (10 μl) or the IgG control. Samples were incubated for 20 min at 4° C. and diluted in PBS (1 ml). Sample data were collected using a Becton Dickinson FACScan flow cytometer and analyzed with Verity Winlist Software (Verity; Topsham, Me.). […] U937 cells were transfected with a full-length p21^WAF1/CIP1 promoter (base pairs 1-2326) as described by Chinery et al. [Chinery et al. 1997] utilizing electroporation (Eppendorf Multiporator, 620V, 60 μs) in hypoosmolar buffer. In each experiment, pSV-βgal (Promega), containing the β-galactosidase gene under the control of the constitutively active SV40 promoter and enhancer, was co-transfected with the luciferase reporter at a ratio of 1:5 (w/w) to normalize for transfection efficiency. The cells were incubated overnight in complete media and treated with 10 nM PMA, 100 nM FP, or 10 nM PMA/100 nM FP for 3 or 6 h. At indicated times, cells were washed in serum-free media, resuspended in 0.25M Tris-HCl pH 7.8, lysed by rapid freeze-thaw, centrifuged and the supernatant frozen at −70° C. Lysates (20 μL) were mixed with luciferase assay reagent (100 μL) and monitored for 20 seconds in a luminometer (Monolight 2010). For β-galactosidase activity, lysates (50 μL) were mixed in triplicate with an equal volume of luciferase assay buffer (2×) in a 96-well plate and incubated overnight. The reaction was terminated by addition of NaCO3 and absorbance was measured at 405 nm in a Vmax plate reader (Molecular Devices). Activity was determined by comparison to a standard curve. […]

ERK1/2 = assay: Western analysis of phosphorylated p44/p42 MAPK in U937 cells; assay type: cell-based, human; conditions: 10 nM PMA, 100 nM FP, 30 min-6 h
Protocol: as §1

[2] = system: p21WAF1/CIP1 full-length promoter; assay: p21WAF1/CIP1 luciferase reporter assay; assay type: cell-based, human; conditions: 10 nM PMA, 100 nM FP, 3 and 6 h
Protocol: as §4, with “In each experiment, pSV-βgal (Promega), containing the β-galactosidase gene under the control of the constitutively active SV40 promoter and enhancer, was co-transfected with the luciferase reporter at a ratio of 1:5 (w/w) to normalize for transfection efficiency. The cells were incubated overnight in complete media and treated with 10 nM PMA, 100 nM FP, or 10 nM PMA/100 nM FP for 3 or 6 h. At indicated times, cells were washed in serum-free media, resuspended in 0.25M Tris-HCl pH 7.8, lysed by rapid freeze-thaw, centrifuged and the supernatant frozen at −70° C.” left out, “For β-galactosidase activity, lysates (50 μL) were mixed in triplicate with an equal volume of luciferase assay buffer (2×) in a 96-well plate and incubated overnight.” left out

U937 cells [3] = assay: clonogenic survival assay; assay type: cell-based, human; conditions: 24-h exposure; 10 nM PMA alone or 10 nM PMA/100 nM FP
Protocol: Clonogenic survival assays. Clonogenic survival assays assessed the effects of 10 nM PMA, FP (50 or 100 nM) or PMA/FP co-treatments on leukemic cell self-renewal capacity. Cell densities were determined after 24-h drug treatment using a Coulter Counter (Coulter Electronics, Hialeah, Fla.). Cells were pelleted by centrifugation and resuspended in fresh media to achieve a final cell density of 3×10^5/ml. A total of 4500 cells were plated in soft agar cloning medium for each condition as previously described [Powell et al. 1995]. Colonies, defined as groups of≧50 cells, were scored after 12 days of incubation. Clonogenic survival in drug-treated samples was expressed as a percentage relative to untreated controls.

U937 cells [4] = assay: plastic adherence (differentiation); assay type: cell-based, human; conditions: 10 nM PMA alone or with FP 100 nM
Protocol: as §4, with “In each experiment, pSV-βgal (Promega), containing the β-galactosidase gene under the control of the constitutively active SV40 promoter and enhancer, was co-transfected with the luciferase reporter at a ratio of 1:5 (w/w) to normalize for transfection efficiency. The cells were incubated overnight in complete media and treated with 10 nM PMA, 100 nM FP, or 10 nM PMA/100 nM FP for 3 or 6 h. At indicated times, cells were washed in serum-free media, resuspended in 0.25M Tris-HCl pH 7.8, lysed by rapid freeze-thaw, centrifuged and the supernatant frozen at −70° C.” left out, “For β-galactosidase activity, lysates (50 μL) were mixed in triplicate with an equal volume of luciferase assay buffer (2×) in a 96-well plate and incubated overnight.” left out

pRb = assay: Western analysis of underphosphorylated pRb in U937 cells; assay type: cell-based, human
Protocol: as §1, §2, §3

p27KIP1 = assay: Western analysis of p27KIP1 expression in U937 cells; assay type: cell-based, human; conditions: 10 nM PMA, FP 50-100 nM, 24 h
Protocol: as §1, with “Following incubation, blots were developed by enhanced chemiluminescence exposure to Kodak X-OMAT film (Eastman Kodak Co., Rochester, N.Y.) and reprobed with antibodies directed against actin to control for equal loading of protein.” left out
Alternatively, whole cell-pellets were washed twice in PBS, resuspended in PBS, and lysed by the addition of I volume of loading buffer. Lysates were boiled for 10 min, centrifuged at 12,800 g for 5 min and quantified using Coomassie protein assay reagent (Pierce, Rockfold, Ill.). […]

[5] = system: HL-60 human promyelocytic leukemia cells; assay: morphological assessment of apoptosis; assay type: cell-based; conditions: 3, 5, or 10 μM ATRA, 80 nM FP
Text: (§5) Cell culture. The myelomonocytic leukemia cell line U937 was derived from a patient with histiocytic lymphoma and was obtained from American Type Culture Collection. The HL-60 cell line was derived from a patient with acute promyelocytic leukemia as previously described [Grant et al. 1992]. U937 and HL-60 cells were maintained in logarithmic growth phase by culturing in suspension in phenol red-free RPMI-1640 (Life Technologies, Inc., Grand Island, N.Y.) and 10% (v/v) fetal calf serum (Hyclone, Logan, Utah), in a humidified atmosphere (95% air/5% CO2) at 37° C. To obtain antisense-expressing cell lines, U937 cells were transfected by electroporation with a pREP4 vector (Invitrogen; Carlsbad, Calif.) or the pREP4 vector containing the p21^WAF1/CIP1 coding region in an antisense orientation as previously described [Wang et al. 1999]. […]
(§6) Morphological assessment of apoptosis. U937 cells were evaluated for apoptosis by morphological assessment of Wright and Giemsa-stained cytospin preparations. At designated times, cells were transferred to slides by cytocentrifugation, fixed, stained, and evaluated under light microscopy for treatment-induced apoptosis. […] Five or more randomly selected fields, encompassing a total≧500 cells/slide, were evaluated to determine the percentage of apoptotic cells for each treatment condition.

U937/Bcl-2 cells = assay: morphological assessment of apoptosis in Bcl-2 overexpressing cells; assay type: cell-based, human; conditions: ara-C 1.0 μM x 6 h
Text: as §5, §6

[6] = system: HL-60 promyelocytic leukemia cells; assay: percent cell death; assay type: cell-based, human; conditions: SAHA 1 and 1.5 μM alone or with 100 or 150 nM FP
[7] = system: U937 myelomonocytic human leukemia cells; assay: percent cell death; assay type: cell-based; conditions: 1 μM SAHA, 100 nM FP, 24 hours after administration
U937 cells [8] = assay: cell cycle analysis (propidium iodide, flow cytometry); assay type: cell-based, human; conditions: 24 h after administration of SAHA, FP or both
Protocol: Cell Cycle Analysis. Following drug treatment, cells were pelleted by centrifugation at 500 g×6 min, and resuspended in 70% ethanol. The cells were incubated on ice for at least 1 h and resuspended in 1 ml cell cycle buffer (0.38 mM Na-Citrate, 0.5 mg/ml RNase A, and 0.01 mg/ml propidium iodide) at a concentration of 10×10^5 cells/ml, stored in the dark at 4 C until analysis (24 h), using a Becton-Dickinson FACScan flow cytometer and Verity Winlist software (Verity Software, Topsham, Me.).

CCCCCCCCCCCCCC(=O)O[C@@H]1[C@@H](C)[C@@]2(O)[C@@H](C=C(CO)C[C@]3(O)C(=O)C(C)=C[C@@H]23)[C@@H]2C(C)(C)[C@]12OC(C)=O [PMA, phorbol 12-myristate 13-acetate]
p21WAF1/CIP1 expression (p21WAF1/CIP1; 10 nM PMA, FP 50-100 nM, 24 h): significant increase
time to induction of p21WAF1/CIP1 after drug addition (p21WAF1/CIP1; PMA 10 nM): ≤ 1 h
percentage of cells displaying CD11b expression (U937 cells [1]): 26%
phosphorylation (activation) of ERK1/2 (ERK1/2): increase in phosphorylated ERK1/2
p21WAF1/CIP1 reporter activity [2]: markedly increased
clonogenic survival, percentage relative to untreated controls (U937 cells [3]): 15%
percentage of cells with plastic adherence (U937 cells [4]): 80%
time of pRb dephosphorylation (pRb; 10 nM PMA alone): 3 h
full-length underphosphorylated pRb (pRb; 10 nM PMA, FP 50, 80 or 100 nM, 24 h): significant increase
p27KIP1 expression (p27KIP1): slight increase

CC1=C(/C=C/C(C)=C/C=C/C(C)=C/C(=O)O)C(C)(C)CCC1 [ATRA, all trans retinoic acid]
% apoptosis [5]: minimal effect

Nc1ccn([C@@H]2O[C@H](CO)[C@@H](O)[C@@H]2O)c(=O)n1 [ara-C, 1-β-D-arabinofuranosylcytosine]
lethal effects in Bcl-2 overexpressing cells (U937/Bcl-2 cells): significantly protected

O=C(CCCCCCC(=O)Nc1ccccc1)NO [SAHA, suberoylanilide hydroxamic acid]
cell death [6]: modest levels of cell death
cell death [7]: ineffective
cell cycle distribution (U937 cells [8]): prominent increase in the percentage of cells arresting in G0/G1
